Laboratory results as given in patent US9980927B2, “Use of tapentadol for inhibiting and/or treating depression and anxiety” (Gruenenthal GmbH, priority 2011, dated 2018).

Tested on: patients with inadequately managed, severe chronic low back pain with or without a neuropathic pain component
Assay: Hospital Anxiety and Depression Scale (HADS) depression score; open-label phase IIIb trial, tapentadol prolonged release 50-250 mg bid for up to 12 weeks
Assay type: in vivo, human patients
Settings: for HADS depression score, course: Baseline to Week 12
Procedure: As used herein, the “depression score” is a value determining the degree of the depression. The scale of depression scores covers the range from 0 to 21, wherein the degree of the depression is high in case of high values and low in case of low values. In a group of tested subjects, typically the mean or mediate values of depression scores are determined. The mean value is the sum of all depression scores divided by the number of subjects. The mediate value is the middle depression score in the set of determined scores. Preferably, the “depression score” is defined as in the experimental section.
A subgroup suffering from neuropathic pain due to lumbar radiculopathy was also investigated.
This was a multicenter, multinational, open-label, effectiveness phase IIIb trial to evaluate effectiveness and safety of tapentadol prolonged release treatment in patients with inadequately managed, severe chronic low back pain with or without a neuropathic pain component. Patients taking WHO Step II analgesics discontinued those analgesics before starting study medication; patients taking Step I analgesics and/or centrally acting co-analgesics continued on the same dose. […] All patients received tapentadol prolonged release (50-250 mg bid) for up to 12 weeks (5-week titration period and a 7-week maintenance period). Tapentadol immediate release (IR) 50 mg (twice a day, hours apart) was permitted (combined total daily dose of tapentadol prolonged release and tapentadol IR, 500 mg/day). The primary efficacy endpoint was the change from Baseline to Week 6 (when tapentadol prolonged release doses were stable) in average pain intensity on the 11-point NRS-3 using the last observation carried forward (LOCF) for imputing missing scores. The painDETECT questionnaire was used to evaluate the likelihood of a neuropathic pain component of low back pain; patients were classified as painDETECT “negative,” “unclear,” or “positive.” The population of patients classified as painDETECT negative was limited to approximately 30% of the total population.
In the painDETECT positive trial population the “diagnosis of lumbar radiculopathy” was evaluated which was defined per study protocol according following criteria: • typical dermatomal pain (radiating beyond the knee towards the foot, pain evoked by stretching within distribution of the ischiadic/femoral nerve) • signs of root dysfunction: • such as sensory impairment, motor symptoms from compression of lumbar nerve root (L4, L5, S1). • and/or absent or diminished quadriceps femoris or triceps surae reflexes. • and/or quantitative sensory testing (QST) deficit and pain distribution present in the same dermatomal area.
All subjects completed Short Form-36 (SF-36) and EuroQol-5 Dimension (EQ-5D) questionnaires and the Hospital Anxiety and Depression Scale (HADS). The Patient Global Impression of Change (PGIC) and Clinical global impression of change (CGIC) were also used as secondary endpoints. For both tests, patients completed the statement, “since I began trial treatment, I would rate my overall condition as,” using 7 possible responses (“very much worse” to “very much improved”). Adverse events were recorded throughout the trial.
In the following • (i) N is the number of subjects of the specified diagnosis group, • (ii) n is the number of subjects with data available, • (iii) “Mean” is the mean score of the subjects, i.e. the sum of all scores is divided by the number of subjects, • (iv) SD is the standard deviation, • (v) “Median” is the median score of the subjects, i.e. the middle score in the set of scores, • (vi) “Range” is the range of scores of the subjects, i.e. the range defined by the lowest and the highest score of the set of scores. First, the depression scores are presented. The total number of subjects in the clinical study: N=175

[1] = Visit 1, defined neuropathic pain N=85
[2] = Visit 1, positive diagnosis of lumbar radiculopathy-neuropathic pain subset N=44
[3] = Visit 1, presumed neuropathic pain component N=41
[4] = Visit 1, presumed or defined neuropathic pain component N=126
[5] = Visit 1, subjects with nociceptive pain N=49
[6] = Visit 5, defined neuropathic pain N=85
[7] = Visit 5, positive diagnosis of lumbar radiculopathy-neuropathic pain subset N=44
[8] = Visit 5, presumed neuropathic pain component N=41
[9] = Visit 5, presumed or defined neuropathic pain component N=126
[10] = Visit 5, subjects with nociceptive pain N=49
[11] = Visit 6, defined neuropathic pain N=85
[12] = Visit 6, positive diagnosis of lumbar radiculopathy-neuropathic pain subset N=44
[13] = Visit 6, presumed neuropathic pain component N=41
[14] = Visit 6, presumed or defined neuropathic
[15] = Visit 6, presumed or defined neuropathic pain component N=126
[16] = Visit 6, subjects with nociceptive pain N=49
[17] = Visit 7, defined neuropathic pain N=85
[18] = Visit 7, positive diagnosis of lumbar radiculopathy-neuropathic pain subset N=44
[19] = Visit 7, presumed neuropathic pain component N=41
[20] = Visit 7, presumed or defined neuropathic pain component N=126
[21] = Visit 7, subjects with nociceptive pain N=49
[22] = Visit 8, defined neuropathic pain N=85

## CC[C@@H](c1cccc(O)c1)[C@@H](C)CN(C)C [tapentadol, (−)-(1R,2R)-3-(3-dimethylamino-1-ethyl-2-methyl-propyl)-phenol]
painDETECT negative
  HADS depression score, course: not significantly
painDETECT unclear/positive, P<0.0001 at Visit 12
  HADS depression score, course: improved steadily
Positive diagnosis of lumbar radiculopathy-neuropathic pain subset, 0.0023 at Visit 12
  HADS depression score, course: improved steadily
[1]
  Depression score Mean (SD): 8.3 (4.51)
  Depression score Median: 8.0
[2]
  Depression score Mean (SD): 7.5 (3.69)
  Depression score Median: 7.5
[3]
  Depression score Mean (SD): 8.8 (4.59)
  Depression score Median: 8.5
[4]
  Depression score Mean (SD): 8.5 (4.52)
  Depression score Median: 8.0
[5]
  Depression score Mean (SD): 6.1 (3.90)
  Depression score Median: 5.0
Visit 1, total subjects N=175
  Depression score Mean (SD): 7.8 (4.47)
  Depression score Median: 7.0
[6]
  Depression score Mean (SD): 7.3 (4.29)
  Depression score Median: 7.0
[7]
  Depression score Mean (SD): 6.7 (3.77)
  Depression score Median: 6.0
[8]
  Depression score Mean (SD): 7.5 (4.59)
  Depression score Median: 7.0
[9]
  Depression score Mean (SD): 7.4 (4.37)
  Depression score Median: 7.0
[10]
  Depression score Mean (SD): 5.6 (3.68)
  Depression score Median: 5.0
Visit 5, total subjects N=175
  Depression score Mean (SD): 6.9 (4.26)
  Depression score Median: 6.0
Visit 6
  Depression score change from baseline Mean (SD): −0.4 (3.55)
  Depression score change from baseline Median: −0.0
Visit 6, defined neuropathic
  Depression score change from baseline Mean (SD): −1.7 (3.43)
  Depression score change from baseline Median: −2.0
[11]
  Depression score Mean (SD): 6.8 (4.41)
  Depression score Median: 6.0
Visit 6, lumbar radiculopathy
  Depression score change from baseline Mean (SD): −1.7 (3.23)
  Depression score change from baseline Median: −1.0
Visit 6, nociceptive
  Depression score change from baseline Mean (SD): −1.0 (3.15)
  Depression score change from baseline Median: −1.0
[12]
  Depression score Mean (SD): 6.3 (3.67)
  Depression score Median: 6.0
[13]
  Depression score Mean (SD): 7.5 (4.60)
  Depression score Median: 7.5
[14]
  Depression score change from baseline Mean (SD): −1.3 (3.50)
  Depression score change from baseline Median: −1.0
[15]
  Depression score Mean (SD): 7.1 (4.46)
  Depression score Median: 7.0
[16]
  Depression score Mean (SD): 5.3 (4.03)
  Depression score Median: 4.0
Visit 6, total
  Depression score change from baseline Mean (SD): −1.2 (3.40)
  Depression score change from baseline Median: −1.0
Visit 6, total subjects N=175
  Depression score Mean (SD): 6.6 (4.41)
  Depression score Median: 6.0
[17]
  Depression score Mean (SD): 6.2 (4.56)
  Depression score Median: 6.0
[18]
  Depression score Mean (SD): 5.4 (3.85)
  Depression score Median: 5.0
[19]
  Depression score Mean (SD): 7.0 (4.71)
  Depression score Median: 6.5
[20]
  Depression score Mean (SD): 6.5 (4.61)
  Depression score Median: 6.0
[21]
  Depression score Mean (SD): 5.0 (3.63)
  Depression score Median: 4.0
Visit 7, total subjects N=175
  Depression score Mean (SD): 6.1 (4.40)
  Depression score Median: 6.0
Visit 8
  Depression score change from baseline Mean (SD): −1.0 (3.13)
  Depression score change from baseline Median: −1.0
Visit 8, defined neuropathic
  Depression score change from baseline Mean (SD): −2.3 (3.33)
  Depression score change from baseline Median: −1.5
[22]
  Depression score Mean (SD): 6.4 (4.28)
  Depression score Median: 6.0
Visit 8, lumbar radiculopathy
  Depression score change from baseline Mean (SD): −2.1 (3.54)
  Depression score change from baseline Median: −1.0
Visit 8, nociceptive
  Depression score change from baseline Mean (SD): −0.8 (2.31)
  Depression score change from baseline Median: −1.0
Visit 8, positive diagnosis of lumbar radiculopathy-neuropathic pain subset N=44
  Depression score Mean (SD): 5.8 (3.71)
